One block for each compound: values may come before it.
How the values were obtained:
[1] = pKa of the indicator compound; assay type: physicochemical
human serum albumin = human serum albumin (Homo sapiens, UniProt P02768); assay: Liquid assay for human serum albumin (increase in absorbance); conditions: albumin 100 mg/dl, 200-250 mM Na+ or K+ citrate buffer
Description: The utility of the merocyanine protein error indicator compounds of the present invention in a liquid assay for the determination of protein levels in a liquid test sample is illustrated in Table 7 below. […] The solution was then treated with sufficient human serum albumin to make the albumin concentration 100 mg/dl and the absorbance was measured again. The reported increase in absorbance (Δ abs) is proportional to the amount of albumin present, and is indicative of the relative sensitivity of the dye for measuring protein.

[2] = molecular target: T1, human serum albumin (HSA) (Homo sapiens, UniProt P02768); assay: Dose response of reagent strips including SPDIB (K/S reflectance, Clinitek 200); conditions: analytical test strips including 0.3 mM SPDIB; 50 mM potassium citrate, pH 2.5; K/S at 25 seconds; FIG. 7
T1 construct: purchased Miles, Inc., Elkhart, Ind; (Pentex)
Description: A buffered liquid sample (50 mM potassium citrate, pH 2.5) which was shown by immunoassay to be devoid of albumin, was spiked to various clinically significant levels with Pentex® human serum albumin (HSA) (Miles, Inc., Elkhart, Ind.). Using a Clinitek 200® Instrument (Miles, Inc., Elkhart, Ind.) protein measurements were made using analytical test strips including 0.3 mM SPDIB.
Resolution was quantitatively expressed in delta K/S between albumin levels, as shown FIG. 7. K/S are calculated from the formula: [formula] wherein R is the fraction of reflectance from the test device, K is a constant, and S is the light scattering coefficient of the particular reflecting medium. The above equation is a simplified form of the well-known Kubelka-Munk equation (See Gustav Kortum, "Reflectance Spectroscopy," pp. 106-11, Springer Verlas, New York (1969). K/S was determined at 25 seconds.

Sequence of human serum albumin (P02768 25-609): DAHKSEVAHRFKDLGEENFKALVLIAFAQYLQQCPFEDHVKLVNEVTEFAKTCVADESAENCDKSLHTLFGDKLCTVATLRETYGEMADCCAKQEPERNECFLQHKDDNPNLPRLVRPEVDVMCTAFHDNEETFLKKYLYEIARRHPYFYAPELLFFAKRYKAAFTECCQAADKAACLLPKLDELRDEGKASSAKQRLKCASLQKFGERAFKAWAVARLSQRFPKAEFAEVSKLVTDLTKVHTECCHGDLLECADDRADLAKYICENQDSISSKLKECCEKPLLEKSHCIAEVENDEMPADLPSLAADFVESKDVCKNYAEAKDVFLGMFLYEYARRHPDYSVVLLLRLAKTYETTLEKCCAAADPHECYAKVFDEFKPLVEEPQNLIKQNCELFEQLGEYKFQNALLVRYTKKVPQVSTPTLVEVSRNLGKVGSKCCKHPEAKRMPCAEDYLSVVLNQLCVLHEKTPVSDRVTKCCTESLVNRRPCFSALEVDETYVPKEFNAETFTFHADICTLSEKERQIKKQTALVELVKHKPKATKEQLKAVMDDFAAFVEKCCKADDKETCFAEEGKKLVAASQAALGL
T1 sequence (P02768 25-609): as above

COMPD. pKa [1]: 3.59 | ΔABS (increase in absorbance) (human serum albumin; compound conc. 1.0 × 10^-5 M, assay pH 3.0, λ 522 nm): 0.156
Structure (SMILES): CC1(C)C(C=Cc2cc(Br)c(O)c(Br)c2)=[N+](CCCS(=O)(=O)[O-])c2ccccc21 [Compound A, 1-(ω-sulfopropyl)-2-(4'hydroxy-3',5'-dibromostyryl)-3,3-dimethylindoleninium betaine]

COMPD. pKa [1]: 4.35 | ΔABS (increase in absorbance) (human serum albumin; compound conc. 2.5 × 10^-5 M, assay pH 3.5, λ 506 nm): 0.027
Structure (SMILES): O=S(=O)([O-])CCCC[n+]1c(C=Cc2cc(I)c(O)c(I)c2)sc2ccccc21 [Compound B, 1-(ω-sulfobutyl)-2-(4'-hydroxy-3',5'-diiodostyryl)-benzothiazolium betaine]

COMPD. pKa [1]: 3.65 | ΔABS (increase in absorbance) (human serum albumin; compound conc. 1.5 × 10^-5 M, assay pH 3.0, λ 543 nm): 0.255
Structure (SMILES): CC1(C)C(C=Cc2cc(I)c(O)c(I)c2)=[N+](CCS(=O)(=O)[O-])c2ccccc21 [Compound C, 1-(ω-sulfoethyl)-2-(4'-hydroxy-3',5'-diiodostyryl)-3,3-dimethylindoleninium betaine]

COMPD. pKa [1]: 3.65 | ΔABS (increase in absorbance) (human serum albumin; compound conc. 2.0 × 10^-5 M, assay pH 3.0, λ 541 nm): 0.402
Structure (SMILES): CC1(C)C(C=Cc2cc(I)c(O)c(I)c2)=[N+](CCCS(=O)(=O)[O-])c2ccccc21 [Compound D, 1-(ω-sulfopropyl)-2-(4'-hydroxy-3'-5'-diiodostyryl)-3,3-dimethylindoleninium betaine]
resolution between protein levels (delta K/S) [2]: significant resolution between protein levels | response of the strip to different levels of protein [2]: sensitive to a wide range of protein concentrations

COMPD. pKa [1]: 3.52 | ΔABS (increase in absorbance) (human serum albumin; compound conc. 1.8 × 10^-5 M, assay pH 3.0, λ 535 nm): 0.322
Structure (SMILES): CC1(C)C(C=Cc2cc(I)c(O)c(I)c2)=[N+](CCCCS(=O)(=O)[O-])c2ccccc21 [Compound E, 1-(ω-sulfobutyl)-2-(4'-hydroxy-3',5'-diiodostyryl)-3,3-dimethylindoleninium betaine]
